Data from patent publication US12083082B2, “Methods for treating neurodegenerative disorders” (Alzheon, Inc., priority 2018, dated 2024).
Several values for one entry are separate records, joined by “and”; a condition that tells them apart may be missing. Identical values can stand only once. Entries after “also recorded” stand apart in the source; their conditions may differ.

Columns and labels:
[1] = target: T1, recombinant human Aβ42 peptide (Homo sapiens, UniProt P05067); assay: Ion mobility mass spectrometry (IMS MS) anti-Aβ42 oligomer activity / binding study; format: biochemical; set-up: key to Presence of Aβ42 Pentamer / Presence of Aβ42 Hexamer / Presence of Aβ42 Decamer / Presence of Aβ42 Dimer / Presence of Aβ42 Trimer / Presence of Aβ42 Tetramer: Y = yes, presence of oligomer species; N = no presence of oligomer species
T1 construct: recombinant human Aβ42 peptide; purchased BioLegend 843801
Experimental: The conditions used for mass spectrometry, using a Waters Synapt G2-S, were as follows: positive polarity in sensitivity mode, capillary=2.5 kV, nebulizer=2 mbar, source temperature=80° C., desolvation temperature=60° C., sample cone setting=35 V, source offset setting=60 V, and mass range=500 to 4000 m/z. These conditions were maintained throughout the study to ensure consistency of the data and to avoid influencing the detection of oligomers due to preferential ionization conditions.
Samples were directly infused into the mass spectrometer at a flow rate of 10 μL/min using a Protea PM-1000 Syringe Pump and Hamilton 1 mL Syringe. The data acquisition of the amyloid peptide was performed using a Waters Synapt G2-S quadrupole time of flight mass spectrometer (Q-TOF MS) with traveling wave ion mobility (Waters Corp., Milford, MA). The data were acquired using the systems sensitivity mode to allow for the detection of the less abundant oligomers. Samples were infused at room temperature. The IMS MS studies were conducted at Protea, Inc. (Morgantown, WV).
1 mg of recombinant human Aβ42 peptide from BioLegend (99% purity, cat #843801) was reconstituted in 200 μL of Fisher Optima LC/MS grade water (cat #W6-1) and vortexed vigorously for 2 minutes to solubilize the peptide creating a 5 mg/mL solution. Samples were then diluted to a final concentration of 22 pmol/μL prior to incubation. The sample mixtures were then incubated at room temperature for 0, 4 and 24 hours. After the acquisition of incubated samples was completed, the raw data were analyzed using the Waters MassLynx v2.4 suite with DriftScover v2.7 to visualize drift times for the peptide.
Aβ42 species characterization using IMS MS was performed by direct infusion at 22 pmol/μL in water. The peptide was prepared in water to maintain the native state conformation of the peptide and ion mobility data acquisition was performed to detect and characterize the conformational changes of the native state monomer and any oligomers that may have formed during the incubation.
The data acquisition for Aβ42 peptide was performed using a Waters Synapt G2-S quadrupole time of flight mass spectrometer (Q-TOF MS) with traveling wave ion mobility (Waters Corp., Milford, MA). The data were acquired using the systems sensitivity mode to allow for the detection of the less abundant oligomers. Samples were infused at room temperature as above.
1 mg of 3-SPA was reconstituted in 1 mL of Fisher Optima LC/MS grade water (cat #W6-1) and vortexed vigorously for 2 minutes until completely dissolved. The sample was then diluted to create […], and 22,000 pmol/μL solutions to perform a 100-fold, and 1,000-fold molar excess for the binding experiments with Aβ42 peptide.
1 mg of recombinant human Aβ42 peptide was reconstituted in 200 μL of Fisher Optima LC/MS grade water and vortexed vigorously to solubilize to a 5 mg/mL solution. Samples were then diluted to their final concentrations prior to incubation. The sample mixtures were incubated at room temperature for 0, 4 and 24 hours, followed by analysis as described above.
To address the high conformational flexibility of Aβ42 and to characterize its interaction with 3-SPA, we used ion mobility mass spectrometry (IMS), with a quadrupole time of flight mass spectrometer (Q-TOF MS) with traveling wave ion mobility. Resulting effect of modulation of Aβ conformational space is the prevention of oligomer formation. We have found not only concentration dependency but also time-dependency of this anti-Aβ42 oligomeric effect of 3-SPA as indicated in FIG. 3 and FIG. 4. 100- vs 1,000-fold molar excess of 3-SPA over Aβ42 results in a different sub-species profile of inhibition of Aβ42 oligomer formation. The activity is also compared with the same excess dependency of tramiprosate.

[2] = Brain penetration of oral 3-SPA in male SD rats (brain, CSF, plasma); format: in vivo, Sprague-Dawley rats; conditions: oral 30 mg/kg
Experimental: A separate group of animals was dosed orally at 30 mg/kg and terminal brain, CSF and plasma samples were collected at 1, 2, 6, and 24 hr (3 animals for each time point) for bioanalyses of 3-SPA in brain and CSF, and to estimate brain penetration relative to plasma concentrations. The in-life study was performed at Agilux Laboratories (Worcester, MA) following quality standards in line with Good Laboratory Practice. Bioanalyses of rat plasma, CSF and brain was preformed using LC-MS/MS at Nextcea. Prior to processing rat brains for bioanalysis, the brains were perfused to remove pooled blood. Pharmacokinetic data analyses were conducted using Winnonlin Professional v5.0.1 (Pharsight, Mountain View, CA).
The plasma concentration of a single dose of 3-SPA, dissolved in saline as a clear solution, administered orally and intravenously to rats at a dose level of 30 mg/kg and 10 mg/kg, respectively, are shown in FIG. 9. Brain, CSF and corresponding plasma levels after a single oral dose of dose of 30 mg/kg of 3-SPA at 1, 2, 6, and 24 hr are shown in FIG. 10. Mean PK curves were used for calculation of pharmacokinetic parameters.

[3] = 100:1 excess ratio compound:protein
[4] = 1000:1 excess ratio compound:protein

T1 sequence (P05067 672-713 limits assumed): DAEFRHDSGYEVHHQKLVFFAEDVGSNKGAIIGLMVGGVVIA

- Presence of Aβ42 Decamer [1, 3]: N
- Presence of Aβ42 Dimer [1, 3]: Y
- Presence of Aβ42 Hexamer [1, 3]: Y
- Presence of Aβ42 Pentamer [1, 3]: Y
- Presence of Aβ42 Tetramer [1, 3]: Y
- Presence of Aβ42 Trimer [1, 3]: Y
- Presence of Aβ42 Decamer [1, 4]: N
- Presence of Aβ42 Dimer [1, 4]: N
- Presence of Aβ42 Hexamer [1, 4]: N
- Presence of Aβ42 Pentamer [1, 4]: Y
- Presence of Aβ42 Tetramer [1, 4]: N
- Presence of Aβ42 Trimer [1, 4]: N
- AUC 0-inf_obs ([2]; Brain): 33224.4 ng·h/mL
- AUC 0-t ([2]; Brain): 7586.5 ng·h/mL
- Cmax ([2]; Brain): 649.8 ng/mL
- t½ ([2]; Brain): 64.07 h
- AUC 0-inf_obs ([2]; CSF): 726.2 ng·h/mL
- AUC 0-t ([2]; CSF): 463.6 ng·h/mL
- Cmax ([2]; CSF): 159.2 ng/mL
- t½ ([2]; CSF): 3.56 h
- AUC 0-inf_obs ([2]; Plasma): 30099.2 ng·h/mL
- AUC 0-t ([2]; Plasma): 30001.7 ng·h/mL
- Cmax ([2]; Plasma): 5714.6 ng/mL
- t½ ([2]; Plasma): 3.03 h
- CSF/brain AUC % [2]: 6.1%
- Brain/Plasma (AUC %), brain penetration ([2]; 30 mg/kg): 25% and 25.3%
Structure (SMILES): O=C(O)CCS(=O)(=O)O [3-SPA, 3-sulfopropanoic acid]
- Inhibition of formation of Aβ42 oligomers (in words) ([1]; 4 hr incubation, ratio 1:1000): inhibits the formation of oligomers with the exception of dimers, trimers and pentamers; also recorded: Detection of Aβ42 dimers, trimers and pentamers
- Inhibition of formation of Aβ42 oligomers (in words) ([1]; 24 hours incubation, 1,000-fold excess): Near complete prevention of formation of Aβ42 oligomers except for pentamers; also recorded: the only oligomeric species not inhibited were pentamers of Aβ42; also recorded: Only pentamers were detected
